According to patent US20100166701A1, “METHOD FOR TREATING RENAL CELL CARCINOMA USING GLYCOGENOLYSIS INHIBITORS” (priority 2008, published 2010):
Entries after “also recorded” stand apart in the source; their conditions may differ. Read-outs that look alike come from different tables or passages of the source.

What was measured:
[1] = test system: prostate cancer cells; conditions: cited from earlier work
[2] = test system: pancreatic tumor cells; conditions: cited from earlier work
[3] = test system: HIF protein; test: Immunoblot of HIF protein levels in Caki-2 cells; type: cell-based, human; conditions: 100 μM, 20 mM glucose, 24 h
Protocol: (§1) To test this hypothesis it was first necessary to establish an in vitro model of glycogenosis in a relevant clear cell renal cell carcinoma (ccRCC) cell type (CAKI-2 cells). It was first necessary to induce levels of glycogenosis similar to those measured in human disease. We obtained human RCC biopsies (FIG. 4 B) and compared glycogen levels with neighboring grossly uninvolved tissue (GU). There was a 180-fold induction of glycogen levels in human RCC (1±1 to 230±40 μg glucose/mg protein, p<0.01). We treated human Caki-2 RCC cells with known activators of hypoxia pathway in 20 mM glucose for 24 h: 100 μM cobalt chloride, 100 μM desferrioxamine (DFO), and hypoxia (pO2=1%) (FIG. 4 A).

[4] = test system: CAKI-2 cells; test: Cell death by propidium iodide inclusion (FACScan) under nutrient deprivation and azide; type: cell-based, human
Protocol: The invention was tested in an in vitro model. CAKI-2 cells were pre-incubated in the presence of 300 μM desferrioximine (DFO, solid line) in RPMI1640 and 10% fetal calf serum to induce the accumulation of glycogen. After 16 hours the media was changed to DMEM with 0 mM glucose and 0 mM pyruvate for 4 hours, to mimic the absence of nutrient as present in the interior of a tumor or resulting from treatment with anti-angiogenic inhibitors, increasing concentrations of sodium azide (0 to 100 mM) to mimic the absence of oxygen, and the presence or absence of 60 μM CP-316819 to specifically target glycogenolysis (CP, closed circles). Cells were then trypsinized, collected, treated with 0.1 mg propidium iodide in KRBH buffer (25 mM HEPES 7.4, 120 mM NaCl, 4.6 mM KCl, 1.9 mM CaCl2, 1 mM MgSO4, and 1.2 mM KH2PO4), and analyzed for cell death by measuring inclusion of propidium iodide on a FACScan instrument ([…]).

[5] = test system: human Caki-2 RCC cells; test: Induction of glycogenosis in Caki-2 RCC cells by activators of the hypoxia pathway; type: cell-based
Protocol: as §1, with “There was a 180-fold induction of glycogen levels in human RCC (1±1 to 230±40 μg glucose/mg protein, p<0.01).” left out
We therefore repeated the induction of glycogenosis with DFO after prior treatment with HIF-1α RNAi (FIG. 5).

[6] = cited from earlier work
[7] = test system: RCC; conditions: clinical trials; cited from earlier work
[8] = test system: CAKI-2 cells; test: Glycogen mobilization in glucose-starved CAKI-2 cells; type: cell-based, human
Source text: Caki-2 cells loose glycogen when starved of glucose in the media and not when there was abundant glucose (p<0.05). As proposed in the invention glycogen reserves are responsive to the metabolic status of the carcinoma cell and are mobilized in response to metabolic stress.
We also tested whether glycogen mobilization could be inhibited pharmacologically (FIG. 6B). We therefore treated glucose-starved CAKI-2 cells with two types of glycogenolysis inhibitor: CP-316819 (▪), which inhibits glycogen phosphorylase and NN-DNJ (♦), which inhibits lysosomal glycogen breakdown. […] After 4 h glycogen loss was restricted to 25% and roughly ⅓^rd was still present after 20 h in glucose free media (p<0.05).

[9] = test system: RCC; conditions: high dose, cited from earlier work
[10] = 100 μM, 20 mM glucose, 24 h, Caki-2 cells

CN(C)C(=O)[C@H](O)[C@H](Cc1ccccc1)NC(=O)c1cc2cc(Cl)ccc2[nH]1 [CP-91149]
glycogen content [1]: two-fold increase | reduction in cell number [1]: 50%

O=C(N[C@@H](Cc1ccc(F)cc1)C(=O)N1CCC(O)CC1)c1cc2cc(Cl)ccc2[nH]1 [CP-320626]
flux into fatty acid synthesis and the pentose phosphate cycle ([2]; concentrations below those required for anti-proliferative and pro-apoptotic effects): inhibited | flux of glucose through the TCA cycle ([2]; pancreatic tumor cells): decreased

CC(=O)N(O)CCCCCNC(=O)CCC(=O)N(O)CCCCCNC(=O)CCC(=O)N(O)CCCCCN [DFO, desferrioxamine]
stabilization of HIF protein levels [3]: able to stabilize HIF protein levels | resistance to cell death ([4]; pre-incubated 300 μM DFO 16 hours, 100 mM azide, 0 mM glucose 4 hours): significantly resistant to cell death | glycogen level (glycogenosis) [5, 10]: 320±90 μg glucose/mg protein | increase of glycogen levels ([5]; CAKI-2 cells, DFO treatment): 9 fold

CCCCCCCCCN1C[C@H](O)[C@@H](O)[C@H](O)[C@H]1CO [NN-DNJ, N-(n-Nonyl)deoxynojirimycin]
duration of sustained increases in hepatic glycogen levels ([6]; mice): at least 120 days | body weight ([6]; mouse, in vivo): did not lose body weight | hypoglycemia ([6]; mouse, in vivo): did not suffer hypoglycemia below normal fasting levels

[Cl][Co][Cl] [cobalt chloride]
stabilization of HIF protein levels [3]: only DFO was able to stabilize HIF protein levels | induction of glycogenosis to a level equivalent to human RCC biopsies [5, 10]: Only DFO, the iron chelator, was able to induce glycogenosis

CCN(CC)CCNC(=O)c1c(C)[nH]c(/C=C2\C(=O)Nc3ccc(F)cc32)c1C [sunitinib malate]
median increase in survival [7]: 16.4 months | response [7]: 24% to 40% | stable disease, additional patients [7]: 27% to 46%

CP-316819
protection of glycogen-loaded cells against cell death ([4]; 60 μM CP-316819, DFO-pretreated cells, 0 mM glucose, 0 mM pyruvate, 4 hours, sodium azide): this protection is lost; also recorded: removed that protection | glycogen loss ([8]; after 4 h, glucose-starved CAKI-2 cells): 25% | glycogen still present (fraction) ([8]; after 20 h in glucose free media): roughly ⅓ | reducing glycogen breakdown (comparison of the two inhibitors) ([8]; glucose-starved CAKI-2 cells): most effective at reducing glycogen breakdown

bevacizumab: humanized monoclonal antibody, VEGF receptor antagonist
survival ([9]; after three years): no difference in survival | response [9]: 30%

ferric ammonium citrate
DFO-dependent glycogen accumulation ([5]; incubated in 150 μM ferric ammonium citrate): did not occur
